{"source": "patent US20100330029A1", "about": "“Cancer Treatments with Radiation and Immunocytokines” (Merck Patent GmbH, priority 2008, published 2010)", "format_in_all_cases": "in vivo, mice", "key": {"[1]": {"tested_on": "immune response markers in the tumor", "experiment": "immune marker gene expression profiles in B16 tumors", "settings": "10 Gy d0 followed by EMD521873, compared to either therapy alone", "description": "(§1) Gene profiling of tumors was analyzed using excised tumor tissues placed in RNAlater® RNA stabilizing reagent upon harvest. Total RNA was prepared with an RNeasy® kit (Qiagen) and cDNA was prepared with the Superscript® III kit for qPCR (Life Technologies, Inc.). qPCR reactions were performed on an ABI7500 instrument in a standardized fashion and relative changes in gene expression were analyzed using the ddCt method (efficiency factor 95%). Housekeeping genes used for comparison included ACTB, B2M and HPRT1.\n(§2) In addition, there was a moderate, but significant increase in certain immune response markers in the tumor as measured by immune marker gene expression profiles with CD25, TNFA, TYROBP, ICOS and CD45 being modulated >4-fold compared to either therapy alone."}, "[2]": {"tested_on": "CT26 colon carcinoma", "experiment": "tumor growth assay, CT26 model", "settings": "Experiment CT26-4; 8 Gy followed by i.v. EMD521873 days 2, 3, 4", "source_text": "(§3) CT26 cells, a murine colon epithelial cell line derived by intrarectal injection of N-nitroso-N-methylurethane in BALB/C mice, were transfected to express the human KS antigen (KSA or EpCAM) that was cloned by PCR and expressed in parental cells using a retroviral vector (Gillies 1998). CT26/KSA cells were maintained in DMEM, supplemented with 10% heat inactivated fetal bovine serum, L-glutamine, vitamins, sodium pyruvate, non-essential amino acids, penicillin/streptomycin and Geneticin® (G418) (Life Technologies, Inc.) at 37° C. and 7% CO2. G418 was added to maintain KSA expression. CT26 and CT26/KSA cells were implanted in female BALB/C mice.\nFor the tumor growth assay, cells growing exponentially in culture were injected as a single cell suspension in 100 μl of PBS intramuscularly into the upper legs of the mice. In experiments using a dual tumor model, cells were also implanted in the flanks of the mice. […] Thereafter, animal survival was monitored. […] Mice were treated on days 0 to 6 and day 17, and tumor size was measured twice weekly for the duration of the study.\n(§4) Tumors were measured with calipers in three dimensions for the duration of the experiment. Tumor volumes were calculated using the equation: […]\nIn the CT26 model (Experiment CT26-4), tumors were irradiated with either 4 or 8 Gy followed by i.v. EMD521873 on days 2, 3, and 4. […] Immune response in the tumor was not monitored."}, "[3]": {"tested_on": "B16 melanoma", "experiment": "tumor growth assay, B16 model", "settings": "Experiment B16-1; 10 Gy d0 followed by i.v. EMD521873 days 3, 4, 5", "description": "B16 cells, a murine melanoma cell line, were maintained in RPMI 1640, supplemented with 10% heat inactivated fetal bovine serum, L-glutamine, sodium pyruvate, non-essential amino acids, penicillin/streptomycin (Life Technologies, Inc.) at 37° C. and 7% CO2. B16 cells were implanted in female C57BL/6 mice.\nFor the tumor growth assay, cells growing exponentially in culture were injected as a single cell suspension in 100 μl of PBS intramuscularly into the upper legs of the mice. In experiments using a dual tumor model, cells were also implanted in the flanks of the mice. After tumors had become established, treatment was initiated (day 0). In Experiment LLC-7, tumors were implanted in the flank until established. Mice were treated on days 0 to 9, then, on day 12, tumors were excised using survival surgery. Thereafter, animal survival was monitored. […] Mice were treated on days 0 to 6 and day 17, and tumor size was measured twice weekly for the duration of the study.\nas §4, §2"}, "[4]": {"tested_on": "LLC tumors", "experiment": "survival after surgical removal of treated LLC tumor", "settings": "Experiment LLC-7; EMD521873 5 mg/kg d7, 8, 9 plus chemoradiation; tumor removed day 12 or 13", "description": "For the tumor growth assay, cells growing exponentially in culture were injected as a single cell suspension in 100 μl of PBS intramuscularly into the upper legs of the mice. In experiments using a dual tumor model, cells were also implanted in the flanks of the mice. After tumors had become established, treatment was initiated (day 0). In Experiment LLC-7, tumors were implanted in the flank until established. Mice were treated on days 0 to 9, then, on day 12, tumors were excised using survival surgery. Thereafter, animal survival was monitored. In Experiment LLC-14, tumors were implanted subcutaneously in the flank until established. Mice were treated on days 0 to 6 and day 17, and tumor size was measured twice weekly for the duration of the study.\nIn another experiment the ability of local irradiation followed by immunocytokine administration to reduce tumor recurrence following surgery was tested (Experiment LLC-7). Mice with subcutaneous LLC tumors were treated with either chemoradiation (cisplatin 4 mg/kg, d0 plus 3.6 Gy/d, d0-4 of fractionated radiation given to the tumor) or EMD521873 (5 mg/kg, d7, 8, 9) plus chemoradiation. The remaining tumor was then surgically removed on day 12 or 13 and survival was monitored. Ten out of 12 mice treated with the combination achieved long term survival compared to 6 out of 10 treated with radiation alone."}, "[5]": {"tested_on": "CT26/KSA colon carcinoma", "experiment": "tumor growth assay, CT26/KSA model", "settings": "Experiments CT26-1-3; 3 or 4 Gy day 0 followed by EMD521873 5 mg/kg i.v. days 2, 3, 4", "source_text": "as §3\nFor the tumor growth assay, cells growing exponentially in culture were injected as a single cell suspension in 100 μl of PBS intramuscularly into the upper legs of the mice. […] Thereafter, animal survival was monitored. […] Mice were treated on days 0 to 6 and day 17, and tumor size was measured twice weekly for the duration of the study.\nas §4\nThe effect of a single dose of radiation given on day 0 followed by i.v. dosing of the immunocytokine (5 mg/kg) was evaluated in three subcutaneous syngeneic tumor models (CT26 colon carcinoma, CT26/KSA colon carcinoma which expresses human EpCAM, and B16 melanoma). […]"}, "[6]": {"tested_on": "immune markers in LLC tumors", "experiment": "immune gene expression profiling of LLC tumors", "settings": "for CD3 gene expression increase / CD8 gene expression increase / CISH gene expression increase / CXCL9 gene expression increase / IFNg gene expression increase: LLC-6; for CD3 gene expression increase: EMD521873+chemoradiation vs EMD521873 or chemoradiation alone; for CD8 gene expression increase / CISH gene expression increase / CXCL9 gene expression increase / IFNg gene expression increase: EMD521873+chemoradiation vs either alone", "description": "as §1"}, "[7]": {"settings": "LLC-13, radiation in the 2 weeks prior to EMD521873"}, "[8]": {"settings": "LLC-13, radiation in the first week followed by EMD521873"}}}
{"substance": "dI-NHS76γ2(h)(FN>AQ)-ala-IL2(D20T) [EMD521873]", "values": [{"measurement": "CD25, TNFA, TYROBP, ICOS and CD45 gene expression modulated in the tumor", "setting": "[1]", "value": "> 4", "unit": "fold"}, {"measurement": "tumor growth", "setting": "[2]", "value": "blocked tumor growth beyond either therapy alone"}, {"measurement": "anti-tumor activity", "setting": "[3]", "value": "greater anti-tumor activity compared to either treatment alone"}, {"measurement": "long term survival after surgery", "setting": "[4]", "value": "Ten out of 12"}, {"measurement": "anti-tumor effect (complete regressions)", "setting": "[5]", "value": "a majority of the animals achieved complete regressions"}, {"measurement": "gene expression profiling, panel of immune markers", "setting": "[6]; Experiments LLC-1, LLC-2, radiation plus EMD521873 compared to either alone", "value": "increases in markers for T cell, T cell activation, lymphocyte trafficking, and Th1 response"}, {"measurement": "CD3 gene expression increase", "setting": "[6]; flank tumor (non-irradiated)", "value": 8, "unit": "fold"}, {"measurement": "CD8 gene expression increase", "setting": "[6]; flank tumor", "value": 3.5, "unit": "fold"}, {"measurement": "CISH gene expression increase", "setting": "[6]; flank tumor", "value": 3.2, "unit": "fold"}, {"measurement": "CXCL9 gene expression increase", "setting": "[6]; flank tumor", "value": 14, "unit": "fold"}, {"measurement": "IFNg gene expression increase", "setting": "[6]; flank tumor", "value": 7, "unit": "fold"}, {"measurement": "CD3 gene expression increase", "setting": "[6]; leg tumor (irradiated)", "value": "> 20", "unit": "fold"}, {"measurement": "CD8 gene expression increase", "setting": "[6]; leg tumor", "value": 10, "unit": "fold"}, {"measurement": "CISH gene expression increase", "setting": "[6]; leg tumor", "value": 5.8, "unit": "fold"}, {"measurement": "CXCL9 gene expression increase", "setting": "[6]; leg tumor", "value": 10.5, "unit": "fold"}, {"measurement": "IFNg gene expression increase", "setting": "[6]; leg tumor", "value": 14, "unit": "fold"}, {"measurement": "12 immune expression markers (GZMB, PDCD1, NKG7, NKG2D, CD3G, ITGAL, CD122, CD8A, FASL, CTLA4, INOS, CD25) upregulated", "setting": "[6]; LLC-8, LLC-9, EMD521873 plus chemoradiation relative to the maximal level achieved in the monotherapies", "value": "3 to 6", "unit": "times"}, {"measurement": "immune gene response profile", "setting": "[6]; LLC-11, EMD521873 followed by radiation, compared to EMD521873 or either radiation regimen alone", "value": "not significantly affected"}, {"measurement": "immune response in the tumor (immune gene profiling)", "setting": "[6]; LLC-12, EMD521873 during the 2nd week of a 3 week course of radiation vs 1 week or 2 week course", "value": "blunted"}, {"measurement": "CD3 fold-induction compared to untreated control", "setting": "[6]; [7]", "value": "~14", "unit": "fold"}, {"measurement": "CD8 fold-induction compared to untreated control", "setting": "[6]; [7]", "value": "~6", "unit": "fold"}, {"measurement": "CD25 fold-induction compared to untreated control", "setting": "[6]; [7]", "value": "~22", "unit": "fold"}, {"measurement": "IFNγ fold-induction compared to untreated control", "setting": "[6]; [7]", "value": "~10", "unit": "fold"}, {"measurement": "granzyme fold-induction compared to untreated control", "setting": "[6]; [7]", "value": "~2", "unit": "fold"}, {"measurement": "perforin fold-induction compared to untreated control", "setting": "[6]; [7]", "value": "~5", "unit": "fold"}, {"measurement": "immune response gene profile in the tumor", "setting": "[6]; LLC-13, radiation in the 3 weeks prior to EMD521873", "value": "nearly complete abrogation of the immune response"}, {"measurement": "CD3 fold-induction compared to untreated control", "setting": "[6]; [8]", "value": "~50", "unit": "fold"}, {"measurement": "CD8 fold-induction compared to untreated control", "setting": "[6]; [8]", "value": "~19", "unit": "fold"}, {"measurement": "CD25 fold-induction compared to untreated control", "setting": "[6]; [8]", "value": "~45", "unit": "fold"}, {"measurement": "IFNγ fold-induction compared to untreated control", "setting": "[6]; [8]", "value": "~22", "unit": "fold"}, {"measurement": "granzyme fold-induction compared to untreated control", "setting": "[6]; [8]", "value": "~22", "unit": "fold"}, {"measurement": "perforin fold-induction compared to untreated control", "setting": "[6]; [8]", "value": "~8", "unit": "fold"}]}
